The target of assay [1] is BTK (Homo sapiens (Human), UniProt Q06187). Description: KdELECT assay for binding affinity to BTK. As to the method: Compounds were tested using a KdELECT assay. Kinase-tagged T7 phage strains were prepared in an E. coli host derived from the BL21 strain. E. coli were grown to log-phase and infected with T7 phage and incubated with shaking at 32° C. until lysis. The lysates were centrifuged and filtered to remove cell debris. The remaining kinases were produced in HEK-293 cells and subsequently tagged with DNA for qPCR detection. Streptavidin-coated magnetic beads were treated with biotinylated small molecule ligands for 30 minutes at room temperature to generate affinity resins for kinase assays. The liganded beads were blocked with excess biotin and washed with blocking buffer (SeaBlock (Pierce), 1% BSA, 0.05% Tween 20, 1 mM DTT) to remove unbound ligand and to reduce non-specific binding. Binding reactions were assembled by combining kinases, liganded affinity beads, and test compounds in 1× binding buffer (20% SeaBlock, 0.17×PBS, 0.05% Tween 20, 6 mM DTT). Test compounds were prepared as 111X stocks in 100% DMSO. Kd values were determined using an 11-point 3-fold compound dilution series with three DMSO control points. All compounds for Kd measurements are distributed by acoustic transfer (non-contact dispensing) in 100% DMSO. The compounds were then diluted directly into the assays such that the final concentration of DMSO was 0.9%. All reactions performed in polypropylene 384-well plate. Each was a final volume of 0.02 mL. The assay plates were incubated at room temperature with shaking for 1 hour and the affinity beads were washed with wash buffer (1×PBS, 0.05% Tween 20). The beads were then re-suspended in elution buffer (1×PBS, 0.05% Tween 20, 0.5 μM nonbiotinylated affinity ligand) and incubated at room temperature with shaking for 30 minutes. The kinase concentration in the eluates was measured by qPCR.
BTK, sequence (Q06187 whole entry): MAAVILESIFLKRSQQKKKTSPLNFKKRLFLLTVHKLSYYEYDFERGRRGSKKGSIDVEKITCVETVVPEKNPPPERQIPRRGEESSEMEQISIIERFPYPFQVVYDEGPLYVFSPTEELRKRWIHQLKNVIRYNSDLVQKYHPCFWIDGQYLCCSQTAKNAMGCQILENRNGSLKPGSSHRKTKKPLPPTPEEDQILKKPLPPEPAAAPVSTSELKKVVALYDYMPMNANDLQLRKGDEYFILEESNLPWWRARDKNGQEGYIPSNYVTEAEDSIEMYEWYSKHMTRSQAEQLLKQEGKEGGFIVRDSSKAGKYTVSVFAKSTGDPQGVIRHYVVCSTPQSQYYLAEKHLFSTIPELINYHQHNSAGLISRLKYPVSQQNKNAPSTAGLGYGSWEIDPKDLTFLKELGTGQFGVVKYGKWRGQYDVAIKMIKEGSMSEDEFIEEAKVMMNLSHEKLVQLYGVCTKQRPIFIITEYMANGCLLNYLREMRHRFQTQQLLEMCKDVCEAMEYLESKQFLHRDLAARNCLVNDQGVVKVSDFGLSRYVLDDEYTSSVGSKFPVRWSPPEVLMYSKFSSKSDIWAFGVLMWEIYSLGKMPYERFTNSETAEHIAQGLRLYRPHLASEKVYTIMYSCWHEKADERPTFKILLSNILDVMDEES

The subject of assay [2] is HEK293 cells. Nature of the assay: Cellular growth inhibition assay (CellTiter-Glo), HEK293 cells. It counts as cell-based. The following applies: Homo sapiens, read-out: CTG HEK293 GI50. As to the method: (§1) HEK293 and HeLa cells were cultured in DMEM medium supplemented with 10% fetal bovine serum and 1% Penn/Strep. Cells were seeded in white 384-well plates at 500 cells/well in […] complete medium. Following seeding, plates were spun at 300×g for three minutes and cultured at 37° C. with 5% CO2 in a humidified tissue culture incubator.
(§2) After 24 hours, compounds were titrated in 100% DMSO and diluted in complete cell culture medium. […] of compound/media mixture was added to cells to bring total volume in well to […]. DMSO alone was used as a negative control. Plates were then spun at 300×g for three minutes and stored at 37° C. with 5% CO2 for three days.
(§3) On Day 0 and Day 3 of compound treatment, cell viability was quantified with CellTiter-Glo 2.0 reagent (Promega). After equilibrating microplates at room temperature for 30 minutes, 25 μL CellTiter-Glo 2.0 reagent was dispensed into each well to bring total volume to […]. Plates were mixed on shaker for 2 minutes at 500 rpm, followed by a 10-minute incubation at room temperature. Following a quick spin, luminescence readings were measured with an En Vision Plate Reader. Data was normalized to DMSO treated Day 0 and Day 3 readings. A four-parameter non-linear regression curve fit was applied to dose-response data in GraphPad Prism data analysis software to determine the half maximal growth inhibitory concentration (GI50) for each compound.

For assay [3], the system named is HeLa cells. Nature of the assay: Cellular growth inhibition assay (CellTiter-Glo), HeLa cells. It is filed as cell-based. The conditions noted are these: Homo sapiens, 72 h, read-out: CTG HELA GI50. On the procedure:
as §1, §2, §3

Where [4] appears, read: 72 h, HEK293 cells, three days of compound treatment, CellTiter-Glo 2.0.
[5] abbreviates: HeLa cells, three days of compound treatment, CellTiter-Glo 2.0.

Where two headings read alike, the source gives them in different places.

Consider eleven compounds from patent US20250136619A1, “HETEROBIFUNCTIONAL COMPOUNDS AND THEIR USE IN TREATING DISEASE” (HALDA THERAPEUTICS OPCO, INC., priority 2021, published 2025).

For `NC(=O)c1c(F)cccc1Nc1nc(Nc2ccc(S(=O)(=O)NCCCCCCCC/C=C/C(=O)N3CCC[C@@H](n4nc(-c5ccc(Oc6ccccc6)cc5)c5c(N)ncnc54)C3)cc2)ncc1Br` [Compound I-17], the dissociation constant (Kd) in assay [1] was 500 to 2500 nM.
As for `CC[C@@H]1C(=O)N(C)c2cnc(Nc3ccc(C(=O)NCCCCCCCCOC/C=C/C(=O)N4CCC[C@@H](n5nc(-c6ccc(Oc7ccccc7)cc6)c6c(N)ncnc65)C4)cc3OC)nc2N1C1CCCC1` [Compound I-36, N-[8-[(E)-4-[(3R)-3-[4-amino-3-(4-phenoxyphenyl)pyrazolo[3,4-d]pyrimidin-1-yl]-1-piperidyl]-4-oxo-but-2-enoxy]octyl]-4-[[(7R)-8-cyclopentyl-7-ethyl-5-methyl-6-oxo-7H-pteridin-2-yl]amino]-3-methoxy-benzamide], the Kd in assay [1] lay within 50 to 500 nM.
Regarding `CC[C@@H]1C(=O)N(C)c2cnc(Nc3ccc(C(=O)NCCOCCOCCOC/C=C/C(=O)N4CCC[C@@H](n5nc(-c6ccc(Oc7ccccc7)cc6)c6c(N)ncnc65)C4)cc3OC)nc2N1C1CCCC1` [Compound I-37, N-[2-[2-[2-[(E)-4-[(3R)-3-[4-amino-3-(4-phenoxyphenyl)pyrazolo[3,4-d]pyrimidin-1-yl]-1-piperidyl]-4-oxo-but-2-enoxy]ethoxy]ethoxy]ethyl]-4-[[(7R)-8-cyclopentyl-7-ethyl-5-methyl-6-oxo-7H-pteridin-2-yl]amino]-3-methoxy-benzamide], the Kd in assay [1] was 50 to 500 nM.
Regarding `CCS(=O)(=O)Nc1ccc(Oc2cccc(OCCOCCOCC(=O)N3CC(=O)N(c4cc(C#N)ccn4)[C@H](C(=O)N(c4cc(F)cc(F)c4)[C@H](C(=O)NC4CC(F)(F)C4)c4ccccc4Cl)C3)c2)c(-c2cn(C)c(=O)c3[nH]ccc23)c1` [Compound I-107, (2S)—N-[(1S)-1-(2-chlorophenyl)-2-[(3,3-difluorocyclobutyl)amino]-2-oxo-ethyl]-1-(4-cyano-2-pyridyl)-N-(3,5-difluorophenyl)-4-[2-[2-[2-[3-[4-(ethylsulfonylamino)-2-(6-methyl-7-oxo-1H-pyrrolo[2,3-c]pyridin-4-yl)phenoxy]phenoxy]ethoxy]ethoxy]acetyl]-6-oxo-piperazine-2-carboxamide], the GI50 was above 5000 nM in assay [2] (setting [4]) and 500 to 1500 nM in assay [3] (setting [5]).
Regarding `CCS(=O)(=O)Nc1ccc(Oc2cccc(OCCOCCOCCOCCOCC(=O)N3CC(=O)N(c4cc(C#N)ccn4)[C@H](C(=O)N(c4cc(F)cc(F)c4)C(C(=O)NC4CC(F)(F)C4)c4ccccc4Cl)C3)c2)c(-c2cn(C)c(=O)c3[nH]ccc23)c1` (stereo partly drawn) [Compound I-108, (2S)—N-[1-(2-chlorophenyl)-2-[(3,3-difluorocyclobutyl)amino]-2-oxo-ethyl]-1-(4-cyano-2-pyridyl)-N-(3,5-difluorophenyl)-4-[2-[2-[2-[2-[2-[3-[4-(ethylsulfonylamino)-2-(6-methyl-7-oxo-1 H-pyrrolo[2,3-c]pyridin-4-yl)phenoxy]phenoxy]ethoxy]ethoxy]ethoxy]ethoxy]acetyl]-6-oxo-piperazine-2-carboxamide], the results for the 50% growth inhibitory concentration (GI50) in assay [2] (setting [4]) and in assay [3] (setting [5]) were above 5000 nM and below 500 nM, respectively.
Turning to `CC(C)(C)c1[nH]cnc1/C=c1\[nH]c(=O)/c(=C/c2ccccc2)n(CCOCCOCC(=O)N2CC(=O)N(c3cc(C#N)ccn3)[C@H](C(=O)N(c3cc(F)cc(F)c3)[C@H](C(=O)NC3CC(F)(F)C3)c3ccccc3Cl)C2)c1=O` [Compound I-109, (2S)-4-[2-[2-[2-[(2Z,5Z)-2-benzylidene-5-[(5-tert-butyl-1H-imidazol-4-yl)methylene]-3,6-dioxo-piperazin-1-yl]ethoxy]ethoxy]acetyl]-N-[(1S)-1-(2-chlorophenyl)-2-[(3,3difluorocyclobutyl)amino]-2-oxo-ethyl]-1-(4-cyano-2-pyridyl)-N-(3,5-difluorophenyl)-6-oxo-piperazine-2-carboxamide], the concentration for 50% growth inhibition (GI50) in assay [2] (HEK293, 72 h) was above 5000 nM; in assay [3] (HeLa), above 5000 nM.
Consider `CC(C)(C)c1[nH]cnc1/C=c1\[nH]c(=O)/c(=C/c2ccccc2)n(CCOCCOCCOCCOCC(=O)N2CC(=O)N(c3cc(C#N)ccn3)[C@H](C(=O)N(c3cc(F)cc(F)c3)[C@H](C(=O)NC3CC(F)(F)C3)c3ccccc3Cl)C2)c1=O` [Compound I-110, (2S)-4-[2-[2-[2-[2-[2-[(2Z,5Z)-2-benzylidene-5-[(5-tert-butyl-1 H-imidazol-4-yl)methylene]-3,6-dioxo-piperazin-1-yl]ethoxy]ethoxy]ethoxy]ethoxy]acetyl]-N-[(1S)-1-(2-chlorophenyl)-2-[(3,3-difluorocyclobutyl)amino]-2-oxo-ethyl]-1-(4-cyano-2-pyridyl)-N-(3,5-difluorophenyl)-6-oxo-piperazine-2-carboxamide], for which the GI50 in assay [2] (setting [4]) and in assay [3] (setting [5]) was above 5000 nM in each case.
With `C[C@@H](Nc1ccc(C#N)n(C)c1=O)c1cc2cc(Cl)c(C3CC(OCCOCCOCCOCCOCCN(C)C(=O)N4N=C(c5cc(F)ccc5F)SC4(CCCN)c4ccccc4)C3)cc2[nH]c1=O` (stereo partly drawn) [Compound I-111, 2-(3-aminopropyl)-N-[2-[2-[2-[2-[2-[3-[6-chloro-3-[(1R)-1-[(6-cyano-1-methyl-2-oxo-3-pyridyl)amino]ethyl]-2-oxo-1H-quinolin-7-yl]cyclobutoxy]ethoxy]ethoxy]ethoxy]ethoxy]ethyl]-5-(2,5-difluorophenyl)-N-methyl-2-phenyl-1,3,4-thiadiazole-3-carboxamide], the GI50 lay in the range of 1500 to 5000 nM in assay [2] (setting [4]) and 500 to 1500 nM in assay [3] (setting [5]).
In the case of `CN(CCNS(=O)(=O)c1cc(F)cc(N(C(=O)[C@@H]2CCC(=O)N2c2cc(C#N)ccn2)[C@H](C(=O)NC2CC(F)(F)C2)c2ccccc2Cl)c1)C(=O)N1N=C(c2cc(F)ccc2F)SC1(CCCN)c1ccccc1` (stereo partly drawn) [Compound I-112, 2-(3-aminopropyl)-N-[2-[[3-[[(1S)-1-(2-chlorophenyl)-2-[(3,3-difluorocyclobutyl)amino]-2-oxo-ethyl]-[(2S)-1-(4-cyano-2-pyridyl)-5-oxo-pyrrolidine-2-carbonyl]amino]-5-fluoro-phenyl]sulfonylamino]ethyl]-5-(2,5-difluorophenyl)-N-methyl-2-phenyl-1,3,4-thiadiazole-3-carboxamide], the GI50 was 1500 to 5000 nM in assay [2] (setting [4]) and 500 to 1500 nM in assay [3] (setting [5]).
As to `CN(CCNS(=O)(=O)c1cc(F)cc(N(C(=O)[C@@H]2CCC(=O)N2c2cc(C#N)ccn2)[C@@H](C(=O)NC2CC(F)(F)C2)c2ccccc2Cl)c1)C(=O)N1N=C(c2cc(F)ccc2F)SC1(CCCN)c1ccccc1` (stereo partly drawn) [Compound I-113, 2-(3-aminopropyl)-N-[2-[[3-[[(1R)-1-(2-chlorophenyl)-2-[(3,3-difluorocyclobutyl)amino]-2-oxo-ethyl]-[(2S)-1-(4-cyano-2-pyridyl)-5-oxo-pyrrolidine-2-carbonyl]amino]-5-fluoro-phenyl]sulfonylamino]ethyl]-5-(2,5-difluorophenyl)-N-methyl-2-phenyl-1,3,4-thiadiazole-3-carboxamide], the GI50 in assay [2] (setting [4]) and in assay [3] (setting [5]) was above 5000 nM throughout.
In the case of `CN(CCOCCOCCNS(=O)(=O)c1cc(F)cc(N(C(=O)[C@@H]2CCC(=O)N2c2cc(C#N)ccn2)C(C(=O)NC2CC(F)(F)C2)c2ccccc2Cl)c1)C(=O)N1N=C(c2cc(F)ccc2F)SC1(CCCN)c1ccccc1` (stereo partly drawn) [Compound I-114, 2-(3-aminopropyl)-N-[2-[2-[2-[[3-[[1-(2-chlorophenyl)-2-[(3,3-difluorocyclobutyl)amino]-2-oxo-ethyl]-[(2S)-1-(4-cyano-2-pyridyl)-5-oxo-pyrrolidine-2-carbonyl]amino]-5-fluoro-phenyl]sulfonylamino]ethoxy]ethoxy]ethyl]-5-(2,5-difluorophenyl)-N-methyl-2-phenyl-1,3,4-thiadiazole-3-carboxamide], the GI50 in assay [2] (setting [4]) was above 5000 nM; in assay [3] (setting [5]), 1500 to 5000 nM.
